Laboratory results taken from ChEMBL document CHEMBL3124939, “Evaluation of nicotine and cotinine analogs as potential neuroprotective agents for Alzheimer's disease” (2014).
Active and inactive are the calls of the source. No cut-off for these calls is given here.

Key:
Format in all cases: functional, cell-based
Cerebral cortex neuron [1] = experiment: Neuroprotective activity in Sprague-Dawley rat primary cortical neurons assessed as inhibition of amyloid beta 1 to 42-induced toxicity by measuring cell viability at 100 uM by trypan blue exclusion assay
Cerebral cortex neuron [2] = experiment: Neuroprotective activity in Sprague-Dawley rat primary cortical neurons assessed as inhibition of amyloid beta 1 to 42-induced toxicity by measuring cell viability at 0.1 uM by trypan blue exclusion assay
Cerebral cortex neuron [3] = experiment: Neuroprotective activity in Sprague-Dawley rat primary cortical neurons assessed as inhibition of glutamate-induced toxicity by measuring cell viability at 10 uM by trypan blue exclusion assay
Cerebral cortex neuron [4] = experiment: Neuroprotective activity in Sprague-Dawley rat primary cortical neurons assessed as inhibition of glutamate-induced toxicity by measuring cell viability at 0.01 uM by trypan blue exclusion assay

Structure (SMILES)	Activity (Cerebral cortex neuron [1])	Activity (Cerebral cortex neuron [2])	other results
O=C1CCC(c2cccnc2)N1 (stereo unspecified)	Active		
C[N+]1=CCC[C@H]1c1cccnc1	Active		
CN1CCC[C@H]1c1cccnc1		Active	
CC12CC3CC(C)(C1)CC(N)(C3)C2			Activity (Cerebral cortex neuron [3]): Active
CN1C(=O)CC[C@H]1c1cccnc1		Active	
CN1CCC[C@H]1c1ccc[n+]([O-])c1			Activity (Cerebral cortex neuron [4]): Active
